Data on 3 compounds can be found in patent US11083716B2 (Achieve Life Sciences, Inc., priority 2019, dated 2021).

Like-named read-outs stand apart in the source and are kept apart here.

The conditions of data set [1]: Cochrane (n > 7000); cited from earlier work.
Data set [2] deals with smokers. Conditions: cited from earlier work.
The subject of data set [3] is smokers. Conditions: cited from earlier work. This is another data set of the same source.
For data set [4], the target named is alpha4, beta2 (α4β2) receptors (Homo sapiens, UniProt P17787+P43681). To be noted: cited from earlier work.
Chain of alpha4, beta2 (α4β2) receptors (P43681 29-627 limits assumed): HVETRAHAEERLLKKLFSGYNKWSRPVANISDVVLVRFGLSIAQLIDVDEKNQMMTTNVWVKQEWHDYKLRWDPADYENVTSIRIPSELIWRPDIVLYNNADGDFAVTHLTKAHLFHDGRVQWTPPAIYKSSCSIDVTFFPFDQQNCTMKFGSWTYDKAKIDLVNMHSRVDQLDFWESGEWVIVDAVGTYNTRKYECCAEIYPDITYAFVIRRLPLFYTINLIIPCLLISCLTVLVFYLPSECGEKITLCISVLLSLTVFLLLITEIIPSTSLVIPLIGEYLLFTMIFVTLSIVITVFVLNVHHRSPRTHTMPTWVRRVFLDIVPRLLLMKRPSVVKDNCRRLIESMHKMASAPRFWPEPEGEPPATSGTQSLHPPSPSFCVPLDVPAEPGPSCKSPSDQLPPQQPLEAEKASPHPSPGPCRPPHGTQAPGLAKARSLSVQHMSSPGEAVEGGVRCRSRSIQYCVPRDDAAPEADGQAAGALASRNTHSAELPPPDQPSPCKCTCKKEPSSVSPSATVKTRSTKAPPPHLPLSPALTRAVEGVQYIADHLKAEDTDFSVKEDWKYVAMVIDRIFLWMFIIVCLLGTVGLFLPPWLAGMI
Chain of alpha4, beta2 (α4β2) receptors (P17787 26-502): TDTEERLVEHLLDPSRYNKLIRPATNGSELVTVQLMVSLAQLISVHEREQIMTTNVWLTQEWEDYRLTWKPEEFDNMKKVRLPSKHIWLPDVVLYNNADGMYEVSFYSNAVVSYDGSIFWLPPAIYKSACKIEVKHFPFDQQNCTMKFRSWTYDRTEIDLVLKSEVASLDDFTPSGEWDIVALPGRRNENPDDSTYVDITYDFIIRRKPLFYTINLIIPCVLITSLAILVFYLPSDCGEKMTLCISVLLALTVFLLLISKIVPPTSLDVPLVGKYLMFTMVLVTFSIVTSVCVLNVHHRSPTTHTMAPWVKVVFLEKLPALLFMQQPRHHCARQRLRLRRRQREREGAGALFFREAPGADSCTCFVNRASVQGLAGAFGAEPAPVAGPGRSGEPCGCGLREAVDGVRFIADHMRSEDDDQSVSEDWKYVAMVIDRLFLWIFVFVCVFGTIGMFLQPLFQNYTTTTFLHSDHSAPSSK
Data set [5] concerns adults smoking 10+ cigarettes daily.
Procedure: This was a six-arm, multi-center, double-blind, randomized, placebo-controlled study conducted in male or female adults years of age, smoking 10+ cigarettes daily, and willing to set a quit date that is 5-7 days after randomization. […] The study also evaluated the effectiveness of a simplified TID dosing schedule for 1.5 mg and an increased dose of 3.0 mg (using both the commercial titration (COM) and simplified TID dosing schedules).
Study treatment started the day after randomization such that study treatment was initiated prior to the quit date, as shown in FIG. 3.
The primary efficacy endpoint for this study was the percent reduction in the number of cigarettes smoked during treatment, which was calculated as follows:
[formula] where N=total number of cigarettes smoked, B=number of cigarettes smoked at baseline and D=number of days.
The primary outcome (Cigarette Score) and the main secondary abstinence outcomes were subjected to sensitivity analyses. The main secondary abstinence outcomes were the initial quit rate at Week 4 and continued 4-week abstinence through Week 5 to Week 8, confirmed by expired CO of <10 ppm designated as Cess/W5-8/CO Success.
The primary outcome was based on the number of cigarettes smoked on each day from a diary. The Cigarette Score used the diary data for the planned 25 days while on study treatment. Presented are sensitivity analyses for the comparison of the 3.0 mg TID arm and the pooled placebo arm related to variations on the primary analysis of Cigarette Score. The alternative definition of the Cigarette Score featured cigarettes recorded in the diary after the planned quit period of Days 5-7, that is, from Day 8 onward, instead of from Day 1 onward.
Another alterative analysis was based on re-analyses of the primary Cigarette Score and the above alternative Cigarette Score, with a weight related to the standard error of the mean number of cigarettes estimated from the diary entries. The weight used for each subject was 1/(SE)^2, where SE is the standard error of the mean estimate, and this type of weighting, referred to as inverse variance weighting, is used commonly. This weighting gives greater weight to means that are estimated with a smaller SE. A small modification to this definition of weight was necessary, however. In computing 1/(SE)^2, a specific rule was used when SE=0, specifically when all diary entry values were equal. In these cases, the SE was computed as if one and only one of the recorded values was larger by one. It can be shown that when this modification to the data is made SE=1/N, where N is the number of the subjects daily (days) entries.
Where [6] appears, read: end of treatment, 12 weeks (EAGLES).
The mark [7] stands for this setting: 1.5 mg Downward Titration (n = 51).
[8] abbreviates: 3.0 mg Downward Titration (n = 50).
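For TEAE: Abnormal dreams, subjects n (%) in this document: multicenter double-blind randomized placebo-controlled trial in adult smokers of 10 or more cigarettes per day, counting subjects with treatment-emergent adverse events per arm.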
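For TEAE: At least 1 AE, subjects n (%) in this document: multicenter double-blind randomized placebo-controlled trial in adult smokers of 10 or more cigarettes per day, counting subjects with treatment-emergent adverse events per arm.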
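For TEAE: Fatigue, subjects n (%) in this document: multicenter double-blind randomized placebo-controlled trial in adult smokers of 10 or more cigarettes per day, counting subjects with treatment-emergent adverse events per arm.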
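For TEAE: Headache, subjects n (%) in this document: multicenter double-blind randomized placebo-controlled trial in adult smokers of 10 or more cigarettes per day, counting subjects with treatment-emergent adverse events per arm.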

As to `c1cnc2cc3c(cc2n1)[C@@H]1CNC[C@H]3C1` [Chantix ®, varenicline], in data set [1], the Abnormal dreams was 12.5%, the Headache is 12.7%, the Insomnia is 14.2% and the Nausea is on record as 27.8%. Besides, the “Serious AEs” value in data set [1] is recorded as 3.3%. Moreover, in data set [2] (4 weeks off treatment (EAGLES)), the “Drug-placebo difference in quit rate” value is on record as 20.7% and the “OR, quit rate versus placebo” value is 3.5. Further, the “Quit Rate at End of Treatment” value in data set [2] (12 weeks (EAGLES)) was 38.0%. In data set [2] (Region Non-U.S.), the “CAR weeks 9-24 % (95% CI)” value is on record as 27.9 (25.2-30.8) % and the “Versus placebo OR (95% CI), CAR weeks 9-24” value was 2.80 (2.20-3.55). Besides, the “Versus placebo OR (95% CI), CAR weeks 9-24” value in data set [2] (Region U.S.) was 2.66 (1.99-3.55). The “CAR weeks 9-24 % (95% CI)” value in data set [2] (Region U.S., listed as Chantix®) is 16%. In addition, the “CAR weeks 9-24 % (95% CI)” value in data set [2] (Region U.S., listed as Varenicline) was 16.1 (14.0-18.4) %. Further, the “overall quit rate at 24 weeks” value in data set [2] (all regions (EAGLES)) is 22%. Further, in data set [2] (setting [6]), the “Drug-placebo difference in quit rate” value is on record as 24.3% and the “OR, quit rate versus placebo” value is 4.0. Also, the “Quit Rate at 4 Weeks Off Treatment” value in data set [2] (sustained quit (EAGLES)) was 33.2%. The “Quit Rate at 4 Weeks Treatment” value in data set [3] (4 weeks (ONCKEN)) is given as 37.7%. Moreover, in data set [3] (4 weeks treatment (ONCKEN)), the “Drug-placebo difference in quit rate” value was 21.4% and the “OR, quit rate versus placebo” value is 3.1.

`O=c1cccc2n1C[C@@H]1CNC[C@H]2C1` [cytisine, (−)-Cytisine]: the “TEAE: Abnormal dreams, subjects n (%)” value runs as follows: under setting [7], 4 (8%); (1.5 mg TID (n = 52)) 4 (8%); under setting [8], 7 (14%); (3.0 mg TID (n = 50)) 3 (6%); (Pooled Cytisinicline (n = 203)) 18 (9%). In addition, the “TEAE: At least 1 AE, subjects n (%)” value reads like this: under setting [7], 29 (57%); (1.5 mg TID (n = 52)) 20 (39%); under setting [8], 23 (46%); (3.0 mg TID (n = 50)) 21 (42%); (Pooled Cytisinicline (n = 203)) 93 (46%). Further, the “TEAE: Fatigue, subjects n (%)” value under setting [7] was 1 (2%); the “TEAE: Fatigue, subjects n (%)” value (1.5 mg TID (n = 52)) is 3 (6%); the “TEAE: Fatigue, subjects n (%)” value under setting [8] is recorded as 2 (4%); the “TEAE: Fatigue, subjects n (%)” value (3.0 mg TID (n = 50)) is recorded as 1 (2%); the “TEAE: Fatigue, subjects n (%)” value (Pooled Cytisinicline (n = 203)) was 7 (3%). For the same compound, the “TEAE: Headache, subjects n (%)” value by setting is: under setting [7], 1 (2%); (1.5 mg TID (n = 52)) 6 (12%); under setting [8], 1 (2%); (3.0 mg TID (n = 50)) 2 (4%); (Pooled Cytisinicline (n = 203)) 10 (5%). The “TEAE: Insomnia, subjects n (%)” value reads like this: under setting [7], 3 (6%); (1.5 mg TID (n = 52)) 4 (8%); under setting [8], 4 (8%); (3.0 mg TID (n = 50)) 3 (6%); (Pooled Cytisinicline (n = 203)) 14 (7%). For the same compound, the “TEAE: Nausea, subjects n (%)” value by setting is: under setting [7], 5 (10%); (1.5 mg TID (n = 52)) 1 (2%); under setting [8], 3 (6%); (3.0 mg TID (n = 50)) 3 (6%); (Pooled Cytisinicline (n = 203)) 12 (6%). Also, the “TEAE: URTI, subjects n (%)” value under setting [7] is listed as 3 (6%); the “TEAE: URTI, subjects n (%)” value (1.5 mg TID (n = 52)) is listed as 5 (10%); the “TEAE: URTI, subjects n (%)” value under setting [8] is recorded as 2 (4%); the “TEAE: URTI, subjects n (%)” value (3.0 mg TID (n = 50)) is recorded as 3 (6%); the “TEAE: URTI, subjects n (%)” value (Pooled Cytisinicline (n = 203)) is on record as 13 (6%). For the same compound, the “TEAE: Constipation, subjects n (%)” value is listed as 1 (2%) (1.5 mg TID (n = 52)), 3 (6%) (3.0 mg TID (n = 50)) and 4 (2%) (Pooled Cytisinicline (n = 203)). Moreover, under “1.5 mg or 3.0 mg treatment arms on both schedules”, the “overall safety following dosing” value was “no safety concerns”. Moreover, the “Serious AEs” value (ORCA-1, pooled Cytisinicline (n = 203)) is 0. Besides, in data set [4], the “binding to receptor subtype” value was “bind strongly and preferentially”. The “Reduction in CO (expired)” value stood at 71% in data set [5] (1.5 mg TID); 78% in data set [5] (1.5 mg, titration (COM) schedule); 80% in data set [5] (3.0 mg TID); 71% in data set [5] (3.0 mg, titration (COM) schedule). The “OR, quit rate versus placebo” value in data set [5] (3.0 mg TID, 4 weeks off treatment, Table 11) was 5.0; in data set [5] (3.0 mg TID, end of treatment (4 weeks), Tables 9-10), 6.3. Besides, the serum cotinine levels entry in data set [5] (all cytisine-treated arms, Week 4) is given as “material reduction”. In data set [5] (weighted analysis, diary from start of intervention), the “Cigarette Score effect estimate (95% confidence interval), 3.0 mg TID versus pooled placebo” value was −11.8 (−24.4, 0.9).

Regarding `CN1CCCC1c1cccnc1` (stereo not shown) [nicotine, Nicotine, reference compound], the “binding to receptor subtype” value in data set [4] was “bind strongly and preferentially”.
